pKi: −log10 of the molar value. *1 amine or outer side, *2 acyl side, *3 side chain or, on linkers, in order; H or OH if unused. Where a SMILES comes first, the peptide text is derived from it. Side-chain parts run from the residue outwards. [ ]: non-standard residue; d: D form. The star is where a group is joined. C20 diacid = O=C(O)CCCCCCCCCCCCCCCCCCC(=O)*; γGlu = O=C(O)[C@H](CCC(=O)[*:2])N[*:1]; αMeL = CC(C)C[C@](C)(N)C(=O)O; AEEA = NCCOCCOCC(=O)O; Aib = CC(C)(N)C(=O)O
Legend:
[1] = target: T1, human GcgR (Homo sapiens, UniProt P47871); assay: [125I]-Glucagon binding, SPA with WGA beads, 0.1% bacitracin; details: geometric mean, read-out: hGcgR Ki
T1 construct: expressed in transfected cells; crude membranes
T1 sequence (P47871 26-477): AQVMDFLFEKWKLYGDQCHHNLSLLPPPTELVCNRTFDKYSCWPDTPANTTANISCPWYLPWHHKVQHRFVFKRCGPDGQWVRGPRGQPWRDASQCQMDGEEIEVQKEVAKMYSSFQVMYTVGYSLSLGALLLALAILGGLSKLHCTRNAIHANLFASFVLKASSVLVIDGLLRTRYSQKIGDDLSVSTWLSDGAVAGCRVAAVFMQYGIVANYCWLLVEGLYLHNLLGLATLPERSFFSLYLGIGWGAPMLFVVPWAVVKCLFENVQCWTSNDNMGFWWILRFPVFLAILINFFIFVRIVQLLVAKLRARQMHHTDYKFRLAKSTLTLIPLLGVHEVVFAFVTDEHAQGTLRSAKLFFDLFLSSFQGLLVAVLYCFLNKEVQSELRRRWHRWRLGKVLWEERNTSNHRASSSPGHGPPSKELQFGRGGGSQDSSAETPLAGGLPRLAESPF
How it was run: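 SPA competition binding with WGA beads on crude membranes from HEK293 cells stably expressing hGcgR. Buffer: 25 mM HEPES pH 7.4, 2.5 mM CaCl2, 1 mM MgCl2, 0.1% bacitracin, 0.003% Tween-20; 10-point 3-fold dilutions, NSB with 1 μM Gcg.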

[2] = target: T2, human GIPR (Homo sapiens, UniProt P48546); assay: [125I]-GIP binding, SPA with WGA beads, 0.1% bacitracin; details: geometric mean, read-out: hGIPR Ki
T2 construct: expressed in transfected cells; crude membranes
T2 sequence (P48546 22-466): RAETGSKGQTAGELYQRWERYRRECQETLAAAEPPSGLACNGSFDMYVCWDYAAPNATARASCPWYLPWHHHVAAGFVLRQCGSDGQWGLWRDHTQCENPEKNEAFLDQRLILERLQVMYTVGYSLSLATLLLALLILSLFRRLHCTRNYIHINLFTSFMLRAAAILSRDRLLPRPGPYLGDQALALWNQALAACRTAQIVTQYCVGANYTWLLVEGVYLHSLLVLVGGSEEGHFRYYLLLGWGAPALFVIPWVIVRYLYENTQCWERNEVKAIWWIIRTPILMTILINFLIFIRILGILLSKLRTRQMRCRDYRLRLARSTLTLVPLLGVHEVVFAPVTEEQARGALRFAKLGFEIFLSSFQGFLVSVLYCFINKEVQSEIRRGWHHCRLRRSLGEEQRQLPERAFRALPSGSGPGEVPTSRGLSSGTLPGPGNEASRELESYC
How it was run: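 Ki values are geometric means (SEM, n independent days), derived from four-parameter nonlinear regression of IC50. Membranes came from hGIPR-expressing CHO cells.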

[3] = target: T3, human GLP-1R (Homo sapiens, UniProt P43220); assay: [125I]-GLP-1 binding, SPA with WGA beads, 0.1% bacitracin; details: geometric mean, read-out: hGLP1R Ki
T3 construct: expressed in transfected cells; crude membranes
T3 sequence (P43220 24-463): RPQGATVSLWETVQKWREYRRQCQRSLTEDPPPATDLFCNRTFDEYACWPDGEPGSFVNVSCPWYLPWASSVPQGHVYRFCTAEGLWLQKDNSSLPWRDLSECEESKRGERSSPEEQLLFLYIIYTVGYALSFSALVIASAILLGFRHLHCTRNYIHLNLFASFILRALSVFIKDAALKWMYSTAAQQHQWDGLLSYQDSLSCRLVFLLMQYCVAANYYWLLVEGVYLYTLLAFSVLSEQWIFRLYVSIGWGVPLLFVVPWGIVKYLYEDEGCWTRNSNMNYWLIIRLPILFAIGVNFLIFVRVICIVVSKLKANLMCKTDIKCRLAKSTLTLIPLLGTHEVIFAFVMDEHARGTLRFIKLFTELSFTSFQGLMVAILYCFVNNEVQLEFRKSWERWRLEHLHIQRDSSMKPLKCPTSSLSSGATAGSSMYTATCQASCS
How it was run: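 Binding buffer was 25 mM HEPES pH 7.4 with 2.5 mM CaCl2, 1 mM MgCl2, 0.1% (w/v) bacitracin, 0.003% Tween-20 and EDTA-free protease inhibitors. Four-parameter regression gave IC50, converted to Ki (geometric mean, SEM, n independent days).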

Row | Structure (SMILES) | pKi [1] | pKi [2] | pKi [3]
1 | CC[C@H](C)[C@H](NC(=O)[C@H](CO)NC(=O)[C@H](Cc1ccc(O)cc1)NC(=O)[C@H](CC(=O)O)NC(=O)[C@H](CO)NC(=O)[C@@H](NC(=O)[C@H](Cc1ccccc1)NC(=O)[C@@H](NC(=O)CNC(=O)[C@H](CCC(=O)O)NC(=O)[C@@H](C)NC(=O)[C@@H](N)Cc1ccc(O)cc1)[C@@H](C)O)[C@@H](C)CC)C(=O)N[C@@H](CC(C)C)C(=O)N[C@@H](CC(C)C)C(=O)N[C@@H](CC(=O)O)C(=O)N[C@@H](CCCCN)C(=O)N[C@@H](CCCCNC(=O)COCCOCCNC(=O)COCCOCCNC(=O)CC[C@H](NC(=O)CCCCCCCCCCCCCCCCCCC(=O)O)C(=O)O)C(=O)N[C@@H](Cc1c[nH]cn1)C(=O)N[C@@H](CCC(N)=O)C(=O)N[C@@H](CCC(N)=O)C(=O)N[C@@H](CC(=O)O)C(=O)N[C@@H](Cc1ccccc1)C(=O)N[C@H](C(=O)N[C@@H](CC(N)=O)C(=O)N[C@@H](Cc1ccc(O)cc1)C(=O)N[C@@H](CC(C)C)C(=O)N[C@@H](CC(C)C)C(=O)N[C@@H](C)C(=O)N[C@@H](CCC(N)=O)C(=O)NCC(=O)N1CCC[C@H]1C(=O)N[C@@H](CO)C(=O)N[C@@H](CO)C(=O)NCC(=O)N[C@@H](C)C(=O)N1CCC[C@H]1C(=O)N1CCC[C@H]1C(=O)N1CCC[C@H]1C(=O)N[C@@H](CO)C(N)=O)C(C)C [Example 15] (H-Y[dA]EGTFISDYSILLDKK([AEEA-AEEA-γGlu-C20 diacid])HQQDFVNYLLAQGPSSGAPPPS-NH2) | < 6.60 | 9.33 | < 6.63
2 | CC[C@H](C)[C@H](NC(=O)[C@H](CCCCN)NC(=O)[C@H](CC(=O)O)NC(=O)[C@H](CC(C)C)NC(=O)[C@](C)(CC(C)C)NC(=O)[C@@H](NC(=O)[C@H](CO)NC(=O)[C@H](Cc1ccc(O)cc1)NC(=O)[C@H](CC(=O)O)NC(=O)[C@H](CO)NC(=O)[C@@H](NC(=O)[C@H](Cc1ccccc1)NC(=O)[C@@H](NC(=O)CNC(=O)[C@H](CCC(=O)O)NC(=O)C(C)(C)NC(=O)[C@@H](N)Cc1ccc(O)cc1)[C@@H](C)O)[C@@H](C)CC)[C@@H](C)CC)C(=O)N[C@@H](Cc1c[nH]cn1)C(=O)N[C@@H](CCC(N)=O)C(=O)NC(C)(C)C(=O)N[C@@H](CC(=O)O)C(=O)N[C@@H](Cc1ccccc1)C(=O)N[C@H](C(=O)N[C@@H](CCC(=O)O)C(=O)N[C@@H](Cc1ccc(O)cc1)C(=O)N[C@@H](CCCCNC(=O)COCCOCCNC(=O)COCCOCCNC(=O)CC[C@H](NC(=O)CCCCCCCCCCCCCCCCCCC(=O)O)C(=O)O)C(=O)N[C@@H](CC(C)C)C(=O)N[C@@H](CCC(=O)O)C(=O)N[C@@H](C)C(=O)NCC(=O)N1CCC[C@H]1C(=O)N[C@@H](CO)C(=O)N[C@@H](CO)C(=O)NCC(=O)N[C@@H](C)C(=O)N1CCC[C@H]1C(=O)N1CCC[C@H]1C(=O)N1CCC[C@H]1C(=O)N[C@@H](CO)C(N)=O)C(C)C [Example 117] (H-Y[Aib]EGTFISDYSI[αMeL]LDKIHQ[Aib]DFVEYK([AEEA-AEEA-γGlu-C20 diacid])LEAGPSSGAPPPS-NH2) | 6.16 | 10.14 | 6.23

Reference: patent US12723063B2, “GIPR-agonist compounds” (Eli Lilly and Company, priority 2019, dated 2026)
